According to patent US20050165025A1, “Combination therapy with 5HT 1A and 5HT 1B-receptor antagonists” (Recordati Ireland Ltd., priority 2004, published 2005):
Read-outs that look alike come from different tables or passages of the source. One block for each compound: values may come before it.

What was measured:
[1] = molecular target: T1, human 5HT1A-serotonergic receptor (Homo sapiens, UniProt P08908); conditions: literature reference given in table; read-out: Binding affinity at 5HT1A receptors, Ki; cited from earlier work
T1 construct: expressed in transfected cells; host or cells: HeLa (human), stably transfected; cell membranes
T1 sequence (P08908 1-422): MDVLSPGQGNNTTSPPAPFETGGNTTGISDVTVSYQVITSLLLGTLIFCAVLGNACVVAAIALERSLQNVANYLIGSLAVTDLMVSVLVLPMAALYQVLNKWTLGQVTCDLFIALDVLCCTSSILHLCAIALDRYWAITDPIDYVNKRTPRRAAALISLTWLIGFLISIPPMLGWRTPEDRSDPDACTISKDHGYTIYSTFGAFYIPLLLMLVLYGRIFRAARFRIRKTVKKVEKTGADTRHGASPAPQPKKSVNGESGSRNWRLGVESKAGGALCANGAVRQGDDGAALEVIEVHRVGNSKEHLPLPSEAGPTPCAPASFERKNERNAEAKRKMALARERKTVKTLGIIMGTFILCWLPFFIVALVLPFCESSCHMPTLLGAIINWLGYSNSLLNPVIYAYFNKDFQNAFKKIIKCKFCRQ

anaesthetised rats = assay: Rhythmic bladder-voiding contractions induced by bladder filling in anaesthetised rats; format: in vivo, rat; conditions: compound alone
Method: Female Sprague-Dawley rats weighing 225-275 g (Crl: CDo Br, Charles River Italia) were used. The animals were housed with free access to food and water and maintained on a forced 12-hour alternating light-dark cycle at 22-24° C. for at least one week, except during the experiment. The activity on rhythmic bladder voiding contractions was evaluated according to the method of Dray J., Pharmacol. Methods, 13:157, 1985, with some modifications as in Guarneri (Guarneri, Pharmacol. Res. 27:173, 1993. Briefly, the rats were anaesthetised by subcutaneous injection of 1.25 g/kg (5 ml/kg) urethane, after which the urinary bladder was catheterised via the urethra using PE 50 polyethylene tubing filled with physiological saline. The catheter was tied in place with a ligature around the external urethral orifice and was connected to conventional pressure transducers (Statham P23 ID/P23 XL). […] The bladder was then filled via the recording catheter by incremental volumes of warm (37° C.) saline until reflex bladder-voiding contractions occurred (usually 0.8-1.5 ml). For intravenous injection of bioactive compounds, PE 50 polyethylene tubing filled with physiological saline was inserted into the jugular vein. Tested compounds were administered or co-administered in solution in a final volume of 0.5 ml/kg.
From the cystometrogram, the number of contractions recorded 15 minutes before (basal values) and after treatment, as well as the mean amplitude of these contractions (mean height of the peaks in mmHg), was evaluated.
Since most compounds produced an effect that was relatively rapid in onset and led to a complete cessation of bladder contractions, bioactivity was conveniently estimated by measuring the duration of bladder quiescence (i.e., the length of the time in minutes during which no contractions occurred: disappearance time=DT). The administered doses (alone or in combination) of the tested compounds were chosen on the basis of previously published results obtained with the same compounds in the utilized model (Testa et al., J. Pharmacol. Exp. Ther. 290: 1258, 1999; Leonardi et al., J. Pharmacol. Exp. Ther. 299: 1027, 2001; Testa et al., BJU Int. 87: 256, 2001) or of their affinity for the 5HT1A or 5-HT1B receptor.

[2] = molecular target: T1, human 5HT1A-serotonergic receptor; assay: Radioligand binding to recombinant 5-HT1A receptors ([3H]8-OH-DPAT, HeLa cell membranes); conditions: Recordati data on file; read-out: Binding affinity at 5HT1A receptors, Ki
Method: Genomic clone G-21 coding for the human 5HT1A-serotonergic receptor was stably transfected in a human cell line (HeLa). HeLa cells were grown as monolayers in Dulbecco's modified Eagle medium (DMEM), containing 10% fetal bovine serum, gentamicin ([…]) and 5% carbon dioxide, at 37° C. The cells were detached from the growth flask at 95% confluence by a cell scraper and were lysed in cold 5 mM Tris and 5 mM EDTA buffer (pH 7.4). The homogenates were centrifuged at 40000×g×20 minutes and the pellets were resuspended in a small volume of cold 5 mM Tris and 5 mM EDTA buffer (pH 7.4) and immediately frozen and stored at −70° C. until use. On the day of experiment, the cell membranes were resuspended in incubation buffer: 50 mM Tris HCl (pH 7.4), 2.5 mM MgCl2, […] (Fargin et al., Nature 335, 358, 1988). The membranes were incubated in a fmal volume of 1 ml for 30 minutes at 30° C. with 1 nM [^3H]8—OH-DPAT, in the absence or presence of the test compounds. Non-specific binding was determined in the presence of 10 μM 5-HT. […]
The affinity of the tested compounds was evaluated as inhibition of specific binding of the radioligand to 5-HT1A receptors (IC50) by using the non-linear curve-fitting program Allfit (De Lean et al., Am. J. Physiol. 235: E97, 1978). […]

Structure (SMILES): COc1ccccc1N1CCN(CCN(C(=O)C2CCCCC2)c2ccccc2[N+](=O)[O-])CC1 [REC 15/3079, 1-[N-(2-nitrophenyl)-N-cyclohexylcarbonyl-2-aminoethyl]-4-(2-methoxyphenyl)piperazine]
Ki [1]: 0.2 nM | disappearance time (DT) of bladder contractions (anaesthetised rats; 0.03 mg/kg i.v.): 2.26 ± 0.51 min

Structure (SMILES): O=C1c2ccccc2S(=O)(=O)N1CCCCN1CCN(c2cc(Cl)cc3c2OCCO3)CC1 [Rec 0/031 1-DU 125530, 2-[4-[4-(7-chloro-2,3-dihydro-1,4-benzodioxin-5-yl)piperazin-1-yl]butyl]-1,2-benzisothiazol-3(2H)-one 1,1-dioxide]
disappearance time (DT) of bladder contractions (anaesthetised rats; 0.01 mg/kg i.v.): 6.96 ± 1.05 min

Ki [2]: 4.75 nM
Structure (SMILES): OC(CCN1CCN(c2cccc3[nH]ccc23)CC1)(c1ccccn1)c1ccccn1 [Rec 27/0206, 1-[3-hydroxy-3,3 bis-(2-pyridyl)propyl]-4-(4-indolyl)piperazine]
disappearance time (DT) of bladder contractions (anaesthetised rats; 0.1 mg/kg i.v.): 9.29 ± 0.80 min

Structure (SMILES): COc1ccc(NC(=O)c2ccc(-c3ccc(-c4noc(C)n4)cc3C)cc2)cc1OCCN(C)C [SB 216641]
disappearance time (DT) of bladder contractions (anaesthetised rats; 0.3 mg/kg i.v.): 1.50 ± 0.28 min

Structure (SMILES): Cc1nc(-c2ccc(-c3ccc(C(=O)N4CCc5cc6c(cc54)C4(CCN(C)CC4)CO6)cc3)c(C)c2)no1 [SB 224289]
disappearance time (DT) of bladder contractions (anaesthetised rats; 1.0 mg/kg i.v.): 2.40 ± 0.46 min

Structure (SMILES): COc1ccccc1N1CCN(CCN(C(=O)C2CCCCC2)c2ccccn2)CC1 [WAY 100635, N-[2-[4-(2-methoxyphenyl)piperazin-1-yl]ethyl]-N-(2-pyridyl)cyclohexanecarboxamide]
disappearance time (DT) of bladder contractions (anaesthetised rats; 0.01 mg/kg i.v.): 10.39 ± 1.45 min
